# Reference: patent US20230013669A1, “Antibacterial Treatment Using a Cannabinoid and an Active Agent” (priority 2019, published 2023)
# Values joined by “and” are separate entries in the source; they are usually repeats but may differ in a detail not shown here. Equal values may be shown once. Read-outs that look alike come from different tables or passages of the source.
# What was measured:
# Type in all cases: cell-based
# [1] = tested on: Escherichia coli ATCC 25922 (GN_001); experiment: MIC micro-broth dilution assay (Example 1 method)
# Experimental: (§5) The plates were covered and incubated at 37° C. for 18-20 h.
# (§6) Optical density was read at 600 nm (OD600) using Tecan M1000 Pro Spectrophotometer. […] Analysis was performed using Microsoft Excel.
# [2] = tested on: Acinetobacter baumannii ATCC 19606 (GN_034); experiment: MIC micro-broth dilution assay (Example 1 method); settings: for MIC: Acinetobacter baumannii
# Experimental: as §5, §6
# [3] = tested on: Pseudomonas aeruginosa ATCC 27853 (GN_042); experiment: MIC micro-broth dilution assay (Example 1 method)
# Experimental: as §5, §6
# [4] = tested on: Acinetobacter baumannii 03.021.1 (GN_038), Colistin resistant; experiment: MIC micro-broth dilution assay (Example 1 method); settings: for Minimum Inhibitory Concentration (MIC): replicates, listed as MCC_000636
# Experimental: (§1) Analysis was performed using Microsoft Excel.
# [5] = tested on: Acinetobacter baumannii 03.021.1 (GN_039), Colistin resistant; experiment: MIC micro-broth dilution assay (Example 1 method); settings: for Minimum Inhibitory Concentration (MIC): replicates, listed as MCC_000636
# Experimental: as §1
# [6] = tested on: Enterobacter cloacae CI Patercon BoxNo: 79 (GN_016), MDR; experiment: MIC micro-broth dilution assay (Example 1 method); settings: for Minimum Inhibitory Concentration (MIC): replicates, listed as MCC_000636
# Experimental: as §1
# [7] = tested on: Escherichia coli HS71 (GN_110), CTX-M; experiment: MIC micro-broth dilution assay (Example 1 method); settings: Example 9 Table 35, compound alone, replicates
# Experimental: as §1
# [8] = tested on: Klebsiella pneumoniae BAA-2146 (GN_045), NDM-1; experiment: MIC micro-broth dilution assay (Example 1 method); settings: Example 9 Table 35, compound alone, replicates, listed as MCC_000636
# Experimental: as §1
# [9] = tested on: Pseudomonas aeruginosa FADDI-PA067 (GN_177), Polymyxin resistant; experiment: MIC micro-broth dilution assay (Example 1 method); settings: GN_177
# Experimental: as §1
# [10] = tested on: Acinetobacter baumannii AL1851, IpxA mutant; Lipid A deficient (GN_237); experiment: MIC broth microdilution, 96-well, visual reading (Example 11)
# Experimental: (§2) The experiment was performed to investigate the antimicrobial activity of cannabidiol (CBD) against an LPS deficient strain (GN_237 Acinetobacter baumannii, IpxA mutant; Lipid A deficient; obtained by colistin selection from base strain ATCC 19606) and its parent strain (GN_034, Acinetobacter baumannii, ATCC 19606).
# (§3) All plates had flat bottom wells and were covered with low-evaporation lids.
# (§4) Two biological replicates ×2 technical replicates were conducted on separate days (final n=4). Inhibition of bacterial growth was determined visually, where the MIC was recorded as the lowest compound concentration with no visible growth.
# [11] = tested on: Acinetobacter baumannii ATCC 19606 Type Strain (GN_034); experiment: as above; settings: Example 11 Table 41; GN_034; n=4 replicates
# Experimental: as §2, §3, §4
# [12] = tested on: Klebsiella pneumoniae ATCC 700603; experiment: MIC micro-broth dilution assay (Example 1 method); settings: Klebsiella pneumoniae, ATCC700603, read-out: MIC of Cefepime
# Experimental: Methods were as for Example 1. Cannabidiol was tested in combination with cefotetan.
# Methods were as for Example 1. Cannabidiol was tested in combination with aztreonam.
# Methods were as for Example 1. Cannabidiol was tested in combination with cefepime.
# Methods were as for Example 1. Cannabidiol was tested in combination with octapeptin C4.
# Methods were as for Example 1. Cannabidiol was tested in combination with Spero SPR206. The experiments were carried out three times.
# [13] = Example 8 Table 31, compound alone
# [14] = Example 9 Table 35, compound alone
molecule,measurement,setting,value
Polymyxin B,Minimal Inhibitory Concentration (MIC),"[1]; Example 1 Table 3, GN_001, compound alone, replicates, listed as MCC_000636",1 µg/mL and 0.5 µg/mL
same,Minimum Inhibitory Concentration (MIC),"[1]; Example 6 Table 23, GN_001, compound alone, replicates, listed as MCC_000636",0.25 μg/mL (2×) and 0.5 μg/mL and 1 μg/mL
same,MIC of Polymyxin B,"[1]; Example 6 Table 24, GN_001",1 µg/mL
same,Minimal Inhibitory Concentration (MIC),"[2]; Example 1 Table 3, GN_034, compound alone, replicates, listed as MCC_000636",1 µg/mL and 0.5 µg/mL
same,Minimum Inhibitory Concentration (MIC),"[2]; Example 6 Table 23, GN_034, compound alone, replicates, listed as MCC_000636",0.25 µg/mL and 0.125 µg/mL and 2 µg/mL and 1 µg/mL
same,MIC of Polymyxin B,"[2]; Example 6 Table 24, GN_034",1 µg/mL and 2 µg/mL
same,Minimal Inhibitory Concentration (MIC),"[3]; Example 1 Table 3, GN_042, compound alone, replicates",1 µg/mL
same,Minimum Inhibitory Concentration (MIC),"[3]; Example 6 Table 23, GN_042, compound alone, replicates, listed as MCC_000636",0.5 μg/mL (2×) and 2 μg/mL (2×)
same,MIC of Polymyxin B,"[3]; Example 6 Table 24, GN_042",2 µg/mL
same,Minimum Inhibitory Concentration (MIC),[4]; [13],0.125 μg/mL (3×) and 0.25 μg/mL
same,MIC of MCC_00636,[4]; Example 8 Table 32,1 µg/mL
same,Minimum Inhibitory Concentration (MIC),[4]; [14],0.125 μg/mL (3×) and 0.25 μg/mL
same,Minimum Inhibitory Concentration (MIC),[5]; [13],0.5 μg/mL and 0.25 μg/mL (3×)
same,MIC of MCC_00636,[5]; Example 8 Table 32,1 µg/mL
same,Minimum Inhibitory Concentration (MIC),[5]; [14],0.5 μg/mL and 0.25 μg/mL (3×)
same,Minimum Inhibitory Concentration (MIC),[6]; [13],16 μg/mL and 8 μg/mL (3×)
same,MIC of MCC_00636,[6]; Example 8 Table 32,8 µg/mL
same,Minimum Inhibitory Concentration (MIC),[6]; [14],16 μg/mL and 8 μg/mL (3×)
same,Minimum Inhibitory Concentration (MIC),[7],0.0625 µg/mL
same,Minimum Inhibitory Concentration (MIC),[8],0.5 μg/mL and 0.25 μg/mL (3×)
same,Minimum Inhibitory Concentration (MIC),"[9]; Example 8 Table 31, compound alone, replicates",2 µg/mL
same,MIC of MCC_00636,[9]; Example 8 Table 32,2 µg/mL
same,activity alone,"[10]; Example 11, Lipid A deficient GN_237",resistant
same,MIC (Test results),"[10]; Example 11 Table 41, GN_237, n=4 replicates",128 µg/mL
same,MIC (Test results),[11],>128 µg/mL
CO/N=C(\C(=O)N[C@@H]1C(=O)N2C(C(=O)[O-])=C(C[N+]3(C)CCCC3)CS[C@H]12)c1csc(N)n1 [Cefepime],MIC of Cefepime,[1]; Cefepime alone,0.062 µg/mL
same,MIC,"[1]; Escherichia coli, ATCC25922, read-out: MIC of Cefepime, Cefepime alone",0.031 µg/mL
same,MIC,"[2]; ATCC19606, read-out: MIC of Cefepime, Cefepime alone",16 µg/mL
same,MIC,"[2]; ATCC19606, read-out: MIC of Cefepime, Example 5 Table 20, GN_034",16 µg/mL
same,MIC,"[2]; ATCC19606, read-out: Minimum Inhibitory Concentration (MIC), Example 5 Table 19, GN_034, compound alone, replicates",16 µg/mL
same,Minimum Inhibitory Concentration (MIC),"[2]; Example 5 Table 19, GN_034, compound alone, replicates",16 µg/mL
same,MIC,"[3]; Pseudomonas aeruginosa, ATCC27853, read-out: MIC of Cefepime",256 µg/mL
same,MIC,[12],1 µg/mL
